Legend:
Format in all cases: cell-based
IL-6 = IL-6 content of MSC conditioned medium by ELISA; details: passage 4; 5 mM NAM, 50 ng/ml FGF4; serum- and FGF4-free medium for 24 hours
Method: FIG. 25 is a bar graph illustrating reduction of cytokine IL-6 (IL-6) content of conditioned medium from nicotinamide and FGF4-treated MSC cultures. Bone marrow mesenchymal stem cells were isolated and cultured as in FIG. 22 above. Cultured media was changed to medium without fetal bovine serum or FGF4 24 hours prior to passage 4, collected from the passage 4 cultures and assayed for IL-6 content by ELISA. −NAM, −FGF4=control; +NAM−FGF4=5 mM NAM, +NAM+FGF4=5 mM NAM+50 ng/ml FGF4. […] In order to assess whether mesenchymal stem cells cultured with nicotinamide or nicotinamide and FGF4 modify the culture medium in a unique manner, secretion of biologically active molecules into the culture medium was measured by ELISA, after depletion of the FGF4 from the medium.

mesenchymal stem cells [1] = experiment: In-vitro wound healing assay on MSC cultures; details: passage 3; 4 days post wound formation
Method: FIGS. 20A-B are photographs illustrating results of an in vitro wound healing assay which was performed on MSCs cultured with (FIG. 20B) or without (FIG. 20A) nicotinamide at passage 3. Wound healing was observed 4 days post wound formation. In-vitro wound healing assay: Wound was performed in MSCs cultures at ˜70% confluence using 200 μl or 1000 μl tip. Four days later the cells were fixated using 10% cold Formalin (Sigma) and stained with Harris Hematoxylin (Sigma). The in-vitro wound healing process was evaluated using microscope.

[2] = test system: Keratinocyte Growth Factor (KGF); experiment: KGF content of MSC conditioned medium by ELISA; details: passage 4; 5 mM NAM, 50 ng/ml FGF4; serum- and FGF4-free medium for 24 hours
Method: FIG. 24 is a bar graph illustrating enhancement of Keratinocyte Growth Factor (KGF) content of conditioned medium from nicotinamide and FGF4-treated MSC cultures. Bone marrow mesenchymal stem cells were isolated and cultured as in FIG. 22 above. Cultured media was changed to medium without fetal bovine serum or FGF4 24 hours prior to passage 4, collected from the passage 4 cultures and assayed for KGF content by ELISA. −NAM, −FGF4=control; +NAM−FGF4=5 mM NAM, +NAM+FGF4=5 mM NAM+50 ng/ml FGF4. Note the significant effect of combined FGF4 and nicotinamide on KGF secretion; Mesenchymal stem cells cultured with nicotinamide and FGF4 have enhanced expansion potential, and maintain an undifferentiated state, compared to mesenchymal stem cells cultured in unsupplemented medium, or mesenchymal stem cells cultured with added nicotinamide alone. In order to assess whether mesenchymal stem cells cultured with nicotinamide or nicotinamide and FGF4 modify the culture medium in a unique manner, secretion of biologically active molecules into the culture medium was measured by ELISA, after depletion of the FGF4 from the medium.

mesenchymal stem cells [3] = experiment: Mesenchymal stem cell culture with growth factors with or without nicotinamide, cell counts
Method: Isolation: Bone marrow derived and adipose tissue derived mesenchymal cells were isolated based on their plastic adherence potential in expansion medium containing: High glucose DMEM and 10% Fetal Bovine Serum (FBS, Hyclone, Logan, Utah, USA) supplemented with 0.05 mg/ml Gentamicin (Sigma) and 2 mM L-glutamine (Biological Industries, Israel). Cells were allowed to adhere for 3-4 days and non-adherent cells were washed out with medium changes. The medium was further exchanged with fresh medium every 3-4 days.
Maintenance and expansion: Once adherent cells reached approximately 80-90% confluency, they were detached with 0.25% trypsin-EDTA (Sigma), washed twice in DMEM and 10% Fetal Bovine Serum, with centrifugation, 400 g, 5 minutes, and re-plated at a 1:2 to 1:1000 dilution under the same culture conditions.
Measurement of number of cells in culture: Cell number was measured using Cedex Automated Cell Counter (Innovatis). The cells were diluted 1:2 in Trypan Blue (Sigma) and cell number was measured automatically under microscope.
Treatment of mesenchymal cultures with nicotinamide: Mesenchymal cultures were initiated as described above, and supplemented with nicotinamide 1-15 mM alone, or in combination with growth factors or growth factors alone, incubated at 37° C. in a humidified atmosphere of 5% CO2 in air. At each passage and at each medium exchange, the cultures were supplemented with mesenchymal medium, nicotinamide and growth factors.
Mesenchymal stem cells were selected and cultured in the presence of particular growth factors (basic fibroblast growth factor—bFGF, heparin binding epidermal growth factor—HB-EGF, fibroblast growth factor 4—FGF-4 and platelet derived growth factor, homodimer, subunit B, PDGF-BB) in the presence and absence of nicotinamide for three or four passages and the number and size of the cells was calculated.
Two concentrations (10 and 50 ng/ml) of each one of the following factors were examined.
In addition, the influence of the combination: 5 mM NAM+50 ng/ml FGF4+50 ng/ml PDGF-BB was examined in comparison to an individual supplement.

[4] = test system: Hepatocyte Growth Factor (HGF); experiment: HGF content of MSC conditioned medium by ELISA; details: passage 4; 5 mM NAM, 50 ng/ml FGF4; serum- and FGF4-free medium for 24 hours
From the text: FIG. 22 is a bar graph illustrating enhancement of Hepatocyte Growth Factor (HGF) content of conditioned medium from nicotinamide and FGF4-treated MSC cultures. Bone marrow mesenchymal stem cells were isolated using Ficoll and plastic adherence method, and cultured for several passages with fetal bovine serum, with added nicotinamide and FGF4 (+NAM+FGF4), with added nicotinamide (+NAM−FGF4) and without added nicotinamide or FGF (−NAM−FGF4). Twenty four hours before passage 4, the media was changed and fresh media without fetal bovine serum or FGF4 was added. The cultured media from passage 4 cultures was collected and assayed for HGF content by ELISA. −NAM, −FGF4=control; +NAM−FGF4=5 mM NAM, +NAM+FGF4=5 mM NAM+50 ng/ml FGF4. Note the significant effect of combined FGF4 and nicotinamide on HGF secretion; Mesenchymal stem cells cultured with nicotinamide and FGF4 have enhanced expansion potential, and maintain an undifferentiated state, compared to mesenchymal stem cells cultured in unsupplemented medium, or mesenchymal stem cells cultured with added nicotinamide alone. In order to assess whether mesenchymal stem cells cultured with nicotinamide or nicotinamide and FGF4 modify the culture medium in a unique manner, secretion of biologically active molecules into the culture medium was measured by ELISA, after depletion of the FGF4 from the medium.

mesenchymal stem cells [5] = experiment: Senescence evaluation assay of cultured MSCs; details: MSCs cultured with nicotinamide
Method: Senescence evaluation assay: Cultured MSCs were stained using the Senescence beta-Galactosidase Staining Kit (Cell Signaling). The cells are fixed and stained for detection of beta-Galactosidase activity at pH 6 using X-Gal and incubation overnight in 37° C. in dry incubator.

mesenchymal stem cells [6] = experiment: MSC cell size (Cedex cell counter) and granularity (side scatter FACS)
Method: Measurement of cell size: Cell size was measured using Cedex Automated Cell Counter (Innovatis). The cells were diluted 1:2 in Trypan Blue (Sigma) and cell size was measured automatically under microscope. Measurement of granularicity: Following trypsin treatment, the cells were analyzed for granularicity by side scatter FACS.

NC(=O)c1cccnc1 [nicotinamide, Nicotinamide]
IL-6 secreted into conditioned medium (IL-6): reduction
wound closure capacity of MSCs (mesenchymal stem cells [1]): higher wound closure capacity
KGF level in conditioned medium [2]: elevated levels
effect on the ability of FGF4 to increase proliferation of mesenchymal stem cells (mesenchymal stem cells [3]; 5 mM NAM with FGF4 50 ng/ml): potentiating effect
proliferative capacity of large batches of MSCs (mesenchymal stem cells [3]; cultured with nicotinamide): enhanced proliferative capacity
HGF level in conditioned medium [4]: elevated levels
number of senescent cells following culture (mesenchymal stem cells [5]): reduced
cell size / undifferentiated state of MSCs cultured with FGF4 (mesenchymal stem cells [6]; FGF4 50 ng/ml, NAM 5 mM, Cedex cell counter): preserves the undifferentiated state
cell size and granularity of MSCs grown with nicotinamide vs without (mesenchymal stem cells [6]; identical conditions without nicotinamide as comparison): smaller and less granular

Source: patent US20150064273A1, “Mesenchymal Stem Cells Conditioned Medium and Methods of Generating and Using the Same” (Gamida-Cell Ltd., priority 2012, published 2015)
